# Laboratory results as given in patent US12195469B2, “Compounds having PDE9A inhibitory activity, and pharmaceutical uses thereof” (KOREA RESEARCH INSTITUTE OF CHEMICAL TECHNOLOGY, priority 2018, dated 2025).
# Biological target: PDE9A (Homo sapiens (Human), UniProt O76083)
# Experiment: PDE9A inhibition, fluorescence polarization assay (IMAP-FP screening express kit)
# Type: biochemical
# Conditions: 10 μM of the compound
# Protocol: The inhibitory activity of the representative compounds according to the present invention against phosphodiesterase 9A was tested based on the polarization assay (IMAP-FP screening express kit) provided by MDS (MDS Analytical Technologies, Sunyvale, CA, USA). As a buffer solution, a reaction solution (a reaction solution containing 0.01% Tween 20 provided by MDS was diluted 5 times, then 5 mM DTT is added) and a polarization detection solution (binding solution A and B provided by MDS were mixed at a ratio of 3:1 and IMAP binding reagent 1/600 was added) were prepared. 100 μM of the substrate (Fl-cGMP substrate; MDS) and 3.6 μg/ml of the enzyme PDE9A (ab54113; abcam) were prepared. 3.6 μg/ml PDE9A and 100 μM substrate were diluted to 20 ng/ml (final reaction concentration: 5 ng/ml) and 400 nM (final reaction concentration: 100 nM), respectively. The buffer solution used for all dilution and preparation processes was 1× reaction solution with 1 mM DTT added, and the polarization detection solution was used to induce polarization at the end.
# The prepared samples were dispensed on black microplates (Multiwell 384 well plates, #3573, Corning Life Sciences, Lowell, MA, USA) using a 16-channel pipette (multi 16-channel, Finnpipette, Thermo Scientific, Essex, UK). The total reaction volume per well is 20 μl. At this time, 10 μl of 2% DMSO, 5 μl of substrate solution, and 5 μl of reaction solution were used as a negative control, and 10 μl of 2% DMSO, 5 μl of substrate solution, and 5 μl of PDE9A solution were used as a positive control. As the experimental group, 10 μl of the compound prepared in Example, 5 μl of the substrate solution, and 5 μl of the PDE9A solution were used. After pretreatment between the compound and the enzyme was performed for about 10 minutes before the enzyme-substrate reaction, 5 μl of cGMP was added to induce the enzyme reaction. During the reaction, each compound, enzyme, and substrate occupied 50%, 25%, and 25% of the total volume, respectively, and they were prepared at high concentrations of 2, 4, and 4 times, respectively, immediately before addition. After the enzymatic reaction, it was shaken lightly for 1 minute and the enzyme reaction was induced at room temperature for 1 hour. Then, 60 μl of a polarization detection solution prepared in advance was added to induce polarization.
# Nanoparticles composed of trivalent metal ions are mixed in the fluorescence detection solution, which combines with phosphoric acid expose by enzymatic reaction to increase the molecular weight and induce polarization. After leaving for 2 hours at room temperature, the polarization (Fluorescence Polarization, FP) value was measured using a multilabel counter (Envision, PerkinElmer, Turku, Finland) (emission wavelength: P-535 nm, S-535 nm, excitation wavelength: 480 nm), and the result was expressed as an IC50 value, which is the concentration of the compound that inhibited PDE9A by 50% in vitro (Table 2).
# PDE9A, sequence (O76083 whole entry): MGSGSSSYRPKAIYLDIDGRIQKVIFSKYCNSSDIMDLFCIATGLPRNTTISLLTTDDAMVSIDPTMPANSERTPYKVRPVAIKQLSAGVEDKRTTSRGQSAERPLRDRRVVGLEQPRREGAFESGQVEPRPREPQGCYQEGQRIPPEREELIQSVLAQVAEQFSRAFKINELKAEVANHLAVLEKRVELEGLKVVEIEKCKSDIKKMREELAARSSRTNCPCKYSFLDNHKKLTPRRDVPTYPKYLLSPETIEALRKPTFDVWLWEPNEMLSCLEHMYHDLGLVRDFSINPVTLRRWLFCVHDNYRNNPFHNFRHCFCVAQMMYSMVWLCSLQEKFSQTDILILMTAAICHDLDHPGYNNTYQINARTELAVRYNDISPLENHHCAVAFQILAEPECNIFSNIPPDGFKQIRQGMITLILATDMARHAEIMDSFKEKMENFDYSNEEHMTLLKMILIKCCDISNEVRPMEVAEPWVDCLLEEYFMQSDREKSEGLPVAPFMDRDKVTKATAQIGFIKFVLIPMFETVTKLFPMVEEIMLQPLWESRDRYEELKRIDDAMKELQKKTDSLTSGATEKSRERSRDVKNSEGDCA
row,Compound,inhibition at 10 µM [%]
1,"O=c1[nH]c(SCc2nc3cc(-c4ccccc4)ccc3o2)nc2c1cnn2-c1ccccc1 [Example 25, 1-phenyl-6-(((5-phenylbenzo[d]oxazol-2-yl)methyl)thio)-1,5-dihydro-4H-pyrazolo[3,4-d]pyrimidin-4-one]",10.3
2,"COc1ccc2nc(CSc3nc4c(cnn4-c4ccccc4)c(=O)[nH]3)oc2c1 [Example 35, 6-(((6-methoxybenzo[d]oxazol-2-yl)methyl)thio)-1-phenyl-1,5-dihydro-4H-pyrazolo[3,4-d]pyrimidin-4-one]",83.6
3,O=c1[nH]c(SCc2nc3cc(Cl)c([N+](=O)[O-])cc3o2)nc2c1cnn2-c1ccccc1 [Example 31],38.9

# Same assay, conditions: Fl-cGMP substrate 100 nM, PDE9A 5 ng/ml, 1 hour at room temperature
row,Compound,IC50 [nM]
1,"O=c1[nH]c(SCc2nc3ccccc3o2)nc2c1cnn2C1CCC(F)(F)CC1 [Example 8, 6-((benzo[d]oxazol-2-ylmethyl)thio)-1-(4,4-difluorocyclohexyl)-1,5-dihydro-4H-pyrazolo[3,4-d]pyrimidin-4-one]",5
2,"Cc1ccc2nc(C(C)Sc3nc4c(cnn4C4CCSCC4)c(=O)[nH]3)oc2c1 (centres unmarked) [Example 24, 6-((1-(6-methylbenzo[d]oxazol-2-yl)ethyl)thio)-1-(tetrahydro-2H-thiopyran-4-yl)-1,5-dihydro-4H-pyrazolo[3,4-d]pyrimidin-4-one]",5
3,"O=c1[nH]c(SCc2nc3ccccc3o2)nc2c1cnn2C1CCCCC1 [Example 12, 6-((benzo[d]oxazol-2-ylmethyl)thio)-1-cyclohexyl-1,5-dihydro-4H-pyrazolol[3,4-d]pyrimidin-4-one]",4
4,"O=c1[nH]c(SCc2nc3cc([N+](=O)[O-])ccc3o2)nc2c1cnn2C1CCC(F)(F)CC1 [Example 38, 1-(4,4-difluorocyclohexyl)-6-(((5-nitrobenzo[d]oxazol-2-yl)methyl)thio)-1,5-dihydro-4H-pyrazolo[3,4-d]pyrimidin-4-one]",45
5,"O=c1[nH]c(SCc2nc3ccc([N+](=O)[O-])cc3o2)nc2c1cnn2C1CCOCC1 [Example 48, 6-(((6-nitrobenzo[d]oxazol-2-yl)methyl)thio)-1-(tetrahydro-2H-pyran-4-yl)-1,5-dihydro-4H-pyrazolo[3,4-d]pyrimidin-4-one]",23
6,"CC(C)n1ncc2c(=O)[nH]c(SCc3nc4ccccc4o3)nc21 [Example 11, 6-((benzo[d]oxazol-2-ylmethyl)thio)-1-isopropyl-1,5-dihydro-4H-pyrazolo[3,4-d]pyrimidin-4-one]",6
7,"O=c1[nH]c(SCc2nc3ccc([N+](=O)[O-])cc3o2)nc2c1cnn2C1CCC(F)(F)CC1 [Example 37, 1-(4,4-difluorocyclohexyl)-6-(((6-nitrobenzo[d]oxazol-2-yl)methyl)thio)-1,5-dihydro-4H-pyrazolo[3,4-d]pyrimidin-4-one]",74
8,"CC(Sc1nc2c(cnn2-c2ccccc2)c(=O)[nH]1)c1nc2ccccc2o1 (centres unmarked) [Example 19, 6-((1-(benzo[d]oxazol-2-yl)ethyl)thio)-1-phenyl-1,5-dihydro-4H-pyrazolo[3,4-d]pyrimidin-4-one]",28
9,"Cc1cc(C)c2oc(CSc3nc4c(cnn4C4CCOCC4)c(=O)[nH]3)nc2c1 [Example 55, 6-(((5,7-dimethylbenzo[d]oxazol-2-yl)methyl)thio)-1-(tetrahydro-2H-pyran-4-yl)-1,5-dihydro-4H-pyrazolo[3,4-d]pyrimidin-4-one]",10
10,"O=c1[nH]c(SCc2nc3c([N+](=O)[O-])cccc3o2)nc2c1cnn2C1CCOCC1 [Example 50, 6-(((4-nitrobenzo[d]oxazol-2-yl)methyl)thio)-1-(tetrahydro-2H-pyran-4-yl)-1,5-dihydro-4H-pyrazolo[3,4-d]pyrimidin-4-one]",130
11,"O=c1[nH]c(SCc2nc3cc(C(F)(F)F)ccc3o2)nc2c1cnn2-c1ccccc1 [Example 36, 1-phenyl-6-(((5-(trifluoromethyl)benzo[d]oxazol-2-yl)methyl)thio)-1,5-dihydro-4H-pyrazolo[3,4-d]pyrimidin-4-one]",34100
12,"Cc1ccc2nc(CSc3nc4c(cnn4C4CCOCC4)c(=O)[nH]3)oc2c1 [Example 14, 6-(((6-methylbenzo[d]oxazol-2-yl)methyl)thio)-1-(tetrahydro-2H-pyran-4-yl)-1,5-dihydro-4H-pyrazolo[3,4-d]pyrimidin-4-one]",4
13,"Cc1cc(C)c2oc(CSc3nc4c(cnn4C4CCC(F)(F)CC4)c(=O)[nH]3)nc2c1 [Example 44, 1-(4,4-difluorocyclohexyl)-6-(((5,7-dimethylbenzo[d]oxazol-2-yl)methyl)thio)-1,5-dihydro-4H-pyrazolo[3,4-d]pyrimidin-4-one]",15
14,"Cc1ccc2nc(C(C)Sc3nc4c(cnn4C4CCOCC4)c(=O)[nH]3)oc2c1 (centres unmarked) [Example 23, 6-((1-(6-methylbenzo[d]oxazol-2-yl)ethyl)thio)-1-(tetrahydro-2H-pyran-4-yl)-1,5-dihydro-4H-pyrazolo[3,4-d]pyrimidin-4-one]",2
15,"CC(C)(C)c1ccc2oc(CSc3nc4c(cnn4C4CCOCC4)c(=O)[nH]3)nc2c1 [Example 53, 6-(((5-(tert-butyl)benzo[d]oxazol-2-yl)methyl)thio)-1-(tetrahydro-2H-pyran4-yl)-1,5-dihydro-4H-pyrazolo[3,4-d]pyrimidin-4-one]",45
16,"COc1ccc2oc(CSc3nc4c(cnn4C4CCC(F)(F)CC4)c(=O)[nH]3)nc2c1 [Example 45, 1-(4,4-difluorocyclohexyl)-6-(((5-methoxybenzo[d]oxazol-2-yl)methyl)thio)-1,5-dihydro-4H-pyrazolo[3,4-d]pyrimidin-4-one]",8
17,"Cc1cccc2oc(CSc3nc4c(cnn4C4CCC(F)(F)CC4)c(=O)[nH]3)nc12 [Example 41, 1-(4,4-difluorocyclohexyl)-6-(((4-methylbenzo[d]oxazol-2-yl)methyl)thio)-1,5-dihydro-4H-pyrazolo[3,4-d]pyrimidin-4-one]",22
18,"O=c1[nH]c(SCc2nc3cc(F)ccc3o2)nc2c1cnn2-c1ccccc1 [Example 4, 6-(((5-fluorobenzo[d]oxazol-2-yl)methyl)thio)-1-phenyl-1,5-dihydro-4H-pyrazolo[3,4-d]pyrimidin-4-one]",83
19,"Cc1ccc2nc(C(C)Sc3nc4c(cnn4C4CCC(F)(F)CC4)c(=O)[nH]3)oc2c1 (centres unmarked) [Example 22, 1-(4,4-difluorocyclohexyl)-6-((1-(6-methylbenzo[d]oxazol-2-yl)ethyl)thio)-1,5-dihydro-4H-pyrazolo[3,4-d]pyrimidin-4-one]",6
20,"Cc1ccc2nc(CSc3nc4c(cnn4C(C)C)c(=O)[nH]3)oc2c1 [Example 18, 6-(((6-methylbenzo[d]oxazol-2-yl)methyl)thio)-1-isopropyl-1,5-dihydro-4H-pyrazolo[3,4-d]pyrimidin-4-one]",4
21,"Cc1ccc2nc(CSc3nc4c(cnn4C4CCCCC4)c(=O)[nH]3)oc2c1 [Example 16, 6-(((6-methylbenzo[d]oxazol-2-yl)methyl)thio)-1-cyclohexyl-1,5-dihydro-4H-pyrazolo[3,4-d]pyrimidin-4-one]",6
22,"O=c1[nH]c(SCc2nc3ccccc3o2)nc2c1cnn2-c1ccccc1 [Example 2, 6-((benzo[d]oxazol-2-ylmethyl)thio)-1-phenyl-1,5-dihydro-4H-pyrazolo[3,4-d]pyrimidin-4-one]",49
23,"O=c1[nH]c(SCc2nc3cc(Br)ccc3o2)nc2c1cnn2-c1ccccc1 [Example 7, 6-(((5-bromobenzo[d]oxazol-2-yl)methyl)thio)-1-phenyl-1,5-dihydro-4H-pyrazolo[3,4-d]pyrimidin-4-one]",100
24,"Cc1cccc2oc(CSc3nc4c(cnn4-c4ccccc4)c(=O)[nH]3)nc12 [Example 26, 6-(((4-methylbenzo[d]oxazol-2-yl)methyl)thio)-1-phenyl-1,5-dihydro-4H-pyrazole[3,4-d]pyrimidin-4-one]",140
25,"O=c1[nH]c(SCc2nc3c([N+](=O)[O-])cccc3o2)nc2c1cnn2C1CCC(F)(F)CC1 [Example 39, 1-(4,4-difluorocyclohexyl)-6-(((4-nitrobenzo[d]oxazol-2-yl)methyl)thio)-1,5-dihydro-4H-pyrazolo[3,4-d]pyrimidin-4-one]",77
26,"O=c1[nH]c(SCc2nc3ccccc3o2)nc2c1cnn2C1CC1 [Example 10, 6-((benzo[d]oxazol-2-ylmethyl)thio)-1-cyclopropyl-1,5-dihydro-4H-pyrazolo[3,4-d]pyrimidin-4-one]",220
